Measurements reported in EP4745137A1 (Gluetacs Therapeutics (Shanghai) Co., Ltd., priority 2023, dated 2025).

How the values were obtained:
GSPT1 = target: T1, GSPT1 (Homo sapiens, UniProt P15170+Q96SW2); assay: Western-blot assay of substrate protein degradation in hPBMCs, GSPT1; format: cell-based; conditions: 24 hours of compound treatment, compounds tested at 50 nM and 500 nM (concentration of the table not stated)
T1 construct: endogenous in cells; host or cells: hPBMCs (Milecell Biotechnologies)
T1 sequence (P15170 whole entry): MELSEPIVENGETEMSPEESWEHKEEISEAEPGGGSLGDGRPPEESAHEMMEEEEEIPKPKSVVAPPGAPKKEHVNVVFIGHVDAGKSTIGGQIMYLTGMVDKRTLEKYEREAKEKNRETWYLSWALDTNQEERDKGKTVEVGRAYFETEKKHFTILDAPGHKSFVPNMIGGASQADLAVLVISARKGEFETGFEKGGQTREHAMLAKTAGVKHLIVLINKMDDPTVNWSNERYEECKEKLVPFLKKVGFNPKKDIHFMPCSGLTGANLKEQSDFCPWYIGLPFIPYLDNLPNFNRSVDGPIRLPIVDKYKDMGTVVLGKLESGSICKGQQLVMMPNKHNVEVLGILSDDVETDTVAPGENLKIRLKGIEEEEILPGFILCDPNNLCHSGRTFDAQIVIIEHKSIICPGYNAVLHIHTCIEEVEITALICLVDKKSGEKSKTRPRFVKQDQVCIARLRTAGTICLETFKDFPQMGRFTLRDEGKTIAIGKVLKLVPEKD
T1 sequence (Q96SW2 whole entry): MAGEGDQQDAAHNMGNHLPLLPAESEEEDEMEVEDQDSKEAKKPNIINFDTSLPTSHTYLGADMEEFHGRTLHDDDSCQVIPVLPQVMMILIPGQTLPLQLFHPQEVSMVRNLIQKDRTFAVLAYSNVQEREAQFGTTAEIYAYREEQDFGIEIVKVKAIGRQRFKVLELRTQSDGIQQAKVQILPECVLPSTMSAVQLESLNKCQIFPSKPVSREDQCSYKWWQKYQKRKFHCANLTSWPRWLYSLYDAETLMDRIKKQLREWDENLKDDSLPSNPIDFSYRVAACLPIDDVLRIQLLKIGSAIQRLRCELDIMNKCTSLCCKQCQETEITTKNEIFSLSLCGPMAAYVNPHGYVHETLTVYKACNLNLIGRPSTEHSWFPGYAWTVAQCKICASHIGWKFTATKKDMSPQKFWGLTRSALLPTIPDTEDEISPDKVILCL
T1 sequence (Q16531 whole entry partner): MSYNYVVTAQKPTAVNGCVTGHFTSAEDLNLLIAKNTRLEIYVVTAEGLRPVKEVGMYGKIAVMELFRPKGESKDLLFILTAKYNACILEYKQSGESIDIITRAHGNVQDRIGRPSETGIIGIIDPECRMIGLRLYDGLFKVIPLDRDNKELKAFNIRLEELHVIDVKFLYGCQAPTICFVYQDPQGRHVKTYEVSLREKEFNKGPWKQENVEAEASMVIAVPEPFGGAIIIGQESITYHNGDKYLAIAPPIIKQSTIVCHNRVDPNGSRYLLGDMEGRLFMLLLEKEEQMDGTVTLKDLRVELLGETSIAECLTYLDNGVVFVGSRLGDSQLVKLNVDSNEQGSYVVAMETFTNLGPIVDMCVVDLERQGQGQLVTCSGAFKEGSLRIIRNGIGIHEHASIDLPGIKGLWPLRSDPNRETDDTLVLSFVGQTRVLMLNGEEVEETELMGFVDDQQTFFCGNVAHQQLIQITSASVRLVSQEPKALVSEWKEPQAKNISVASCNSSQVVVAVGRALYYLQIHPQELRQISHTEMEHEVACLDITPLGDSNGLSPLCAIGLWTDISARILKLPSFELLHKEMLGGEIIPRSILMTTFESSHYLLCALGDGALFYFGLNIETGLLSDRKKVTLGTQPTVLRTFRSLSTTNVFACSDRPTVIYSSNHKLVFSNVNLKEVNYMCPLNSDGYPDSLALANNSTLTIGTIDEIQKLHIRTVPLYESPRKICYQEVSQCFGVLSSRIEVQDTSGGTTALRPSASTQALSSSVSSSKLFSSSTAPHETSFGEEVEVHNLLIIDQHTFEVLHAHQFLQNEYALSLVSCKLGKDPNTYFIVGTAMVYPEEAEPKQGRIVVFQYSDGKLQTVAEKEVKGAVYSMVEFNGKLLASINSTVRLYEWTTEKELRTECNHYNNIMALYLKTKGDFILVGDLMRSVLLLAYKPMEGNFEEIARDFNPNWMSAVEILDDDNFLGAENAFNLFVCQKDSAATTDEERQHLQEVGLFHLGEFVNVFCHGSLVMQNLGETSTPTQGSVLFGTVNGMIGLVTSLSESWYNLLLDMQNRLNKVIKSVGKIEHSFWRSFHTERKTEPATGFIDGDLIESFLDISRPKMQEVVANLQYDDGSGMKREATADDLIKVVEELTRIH

CK1α = target: T2, CK1α (Homo sapiens, UniProt P48729+Q96SW2); assay: Western-blot assay of substrate protein degradation in hPBMCs, CK1α; format: cell-based; conditions: 24 hours of compound treatment, compounds tested at 50 nM and 500 nM (concentration of the table not stated)
T2 construct: endogenous in cells; host or cells: hPBMCs (Milecell Biotechnologies)
T2 sequence (P48729 whole entry): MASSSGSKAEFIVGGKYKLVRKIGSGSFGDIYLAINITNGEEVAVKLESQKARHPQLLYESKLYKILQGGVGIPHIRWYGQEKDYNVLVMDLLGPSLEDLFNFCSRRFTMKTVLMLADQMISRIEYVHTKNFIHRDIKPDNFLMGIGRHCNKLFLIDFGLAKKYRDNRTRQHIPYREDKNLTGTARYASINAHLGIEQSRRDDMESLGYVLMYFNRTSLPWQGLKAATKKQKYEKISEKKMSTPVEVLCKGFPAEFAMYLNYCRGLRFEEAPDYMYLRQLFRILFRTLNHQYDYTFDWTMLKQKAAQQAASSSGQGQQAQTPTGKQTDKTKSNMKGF
T2 sequence (Q96SW2 whole entry): as the sequence (Q96SW2 whole entry) above
T2 sequence (Q16531 whole entry partner): as the sequence (Q16531 whole entry partner) above

NCI-H1975 = assay: Tumor cell proliferation inhibition (CellTiter-Meiluncell Luminescent Cell Viability Assay), NCI-H1975; conditions: Homo sapiens, NCI-H1975, 96 h, read-out: inhibitory activity (IC50, nM) against tumor cells proliferation, H1975
[1] = system: Human acute T lymphocytic leukemia cells (Molt-4); assay: Tumor cell proliferation inhibition (CellTiter-Meiluncell Luminescent Cell Viability Assay), Molt-4; conditions: MOLT-4, 96 h, read-out: inhibitory activity (IC50, nM) against tumor cells proliferation, Molt 4
[2] = target: T3, human Cereblon WT GST-tagged protein (Homo sapiens, UniProt Q96SW2); assay: CRBN-binding affinity by HTRF (CEREBLON BINDING kit); conditions: HTRF inhibitory activity, CEREBLON BINDING kit; read-out: HTRF IC50
T3 construct: purchased CISBIO 64BDCRBNPEH
T3 sequence (Q96SW2 whole entry): as the sequence (Q96SW2 whole entry) above

WEE1 = target: T4, WEE1 (Homo sapiens, UniProt P30291+Q96SW2); assay: Western-blot assay of substrate protein degradation in hPBMCs, WEE1; format: cell-based; conditions: 24 hours of compound treatment, compounds tested at 50 nM and 500 nM (concentration of the table not stated)
T4 construct: endogenous in cells; host or cells: hPBMCs (Milecell Biotechnologies)

IKZF1 = target: T5, IKZF1 (Homo sapiens, UniProt Q13422+Q96SW2); assay: Western-blot assay of substrate protein degradation in hPBMCs, IKZF1; format: cell-based; conditions: 24 hours of compound treatment, compounds tested at 50 nM and 500 nM (concentration of the table not stated)
T5 construct: endogenous in cells; host or cells: hPBMCs (Milecell Biotechnologies)
T5 sequence (Q13422 whole entry): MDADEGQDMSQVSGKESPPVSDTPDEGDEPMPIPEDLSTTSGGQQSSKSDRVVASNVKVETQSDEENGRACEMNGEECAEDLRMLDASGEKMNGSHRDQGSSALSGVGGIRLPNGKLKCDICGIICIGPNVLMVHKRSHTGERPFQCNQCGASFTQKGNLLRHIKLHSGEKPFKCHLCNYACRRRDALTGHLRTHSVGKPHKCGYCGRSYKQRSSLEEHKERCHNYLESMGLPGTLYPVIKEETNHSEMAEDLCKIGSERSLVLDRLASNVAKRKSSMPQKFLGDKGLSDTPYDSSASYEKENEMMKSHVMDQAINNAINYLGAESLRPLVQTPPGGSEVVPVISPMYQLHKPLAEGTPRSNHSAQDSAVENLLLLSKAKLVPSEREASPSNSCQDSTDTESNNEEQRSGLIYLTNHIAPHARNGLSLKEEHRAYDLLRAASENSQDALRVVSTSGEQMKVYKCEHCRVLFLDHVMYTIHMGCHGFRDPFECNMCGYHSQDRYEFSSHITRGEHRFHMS
T5 sequence (Q96SW2 whole entry): as the sequence (Q96SW2 whole entry) above
T5 sequence (Q16531 whole entry partner): as the sequence (Q16531 whole entry partner) above

IKZF3 = target: T6, IKZF3 (Homo sapiens, UniProt Q96SW2+Q9UKT9); assay: Western-blot assay of substrate protein degradation in hPBMCs, IKZF3; format: cell-based; conditions: 24 hours of compound treatment, compounds tested at 50 nM and 500 nM (concentration of the table not stated)
T6 construct: endogenous in cells; host or cells: hPBMCs (Milecell Biotechnologies)
T6 sequence (Q9UKT9 whole entry): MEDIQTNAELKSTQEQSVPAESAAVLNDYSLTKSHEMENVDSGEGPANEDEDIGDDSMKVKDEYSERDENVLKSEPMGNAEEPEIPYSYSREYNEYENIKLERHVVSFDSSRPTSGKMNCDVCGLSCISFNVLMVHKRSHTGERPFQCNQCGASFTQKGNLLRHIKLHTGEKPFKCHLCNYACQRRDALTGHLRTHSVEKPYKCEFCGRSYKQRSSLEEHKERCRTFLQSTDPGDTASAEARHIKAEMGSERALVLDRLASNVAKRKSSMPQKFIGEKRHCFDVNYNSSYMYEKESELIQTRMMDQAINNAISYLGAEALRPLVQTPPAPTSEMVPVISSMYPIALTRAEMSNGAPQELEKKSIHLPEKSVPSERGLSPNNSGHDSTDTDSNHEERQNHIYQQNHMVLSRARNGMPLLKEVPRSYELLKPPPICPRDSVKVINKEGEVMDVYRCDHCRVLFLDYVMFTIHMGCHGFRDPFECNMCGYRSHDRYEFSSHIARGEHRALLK
T6 sequence (Q96SW2 whole entry): as the sequence (Q96SW2 whole entry) above
T6 sequence (Q16531 whole entry partner): as the sequence (Q16531 whole entry partner) above

[3] = system: Human breast cancer cells (MDA-MB-231); assay: Tumor cell proliferation inhibition (CellTiter-Meiluncell Luminescent Cell Viability Assay), MDA-MB-231; conditions: MDA-MB-231, 96 h, read-out: inhibitory activity (IC50, nM) against tumor cells proliferation, MDA-MB-231
TMD8 = assay: Tumor cell proliferation inhibition (CellTiter-Meiluncell Luminescent Cell Viability Assay), TMD8; conditions: Homo sapiens, TMD8, 96 h, read-out: inhibitory activity (IC50, nM) against tumor cells proliferation, TMD8
IKZF2 = target: T7, IKZF2 (Homo sapiens, UniProt Q96SW2+Q9UKS7); assay: Western-blot assay of substrate protein degradation in hPBMCs, IKZF2; format: cell-based; conditions: 24 hours of compound treatment, compounds tested at 50 nM and 500 nM (concentration of the table not stated)
T7 construct: endogenous in cells; host or cells: hPBMCs (Milecell Biotechnologies)
T7 sequence (Q9UKS7 whole entry): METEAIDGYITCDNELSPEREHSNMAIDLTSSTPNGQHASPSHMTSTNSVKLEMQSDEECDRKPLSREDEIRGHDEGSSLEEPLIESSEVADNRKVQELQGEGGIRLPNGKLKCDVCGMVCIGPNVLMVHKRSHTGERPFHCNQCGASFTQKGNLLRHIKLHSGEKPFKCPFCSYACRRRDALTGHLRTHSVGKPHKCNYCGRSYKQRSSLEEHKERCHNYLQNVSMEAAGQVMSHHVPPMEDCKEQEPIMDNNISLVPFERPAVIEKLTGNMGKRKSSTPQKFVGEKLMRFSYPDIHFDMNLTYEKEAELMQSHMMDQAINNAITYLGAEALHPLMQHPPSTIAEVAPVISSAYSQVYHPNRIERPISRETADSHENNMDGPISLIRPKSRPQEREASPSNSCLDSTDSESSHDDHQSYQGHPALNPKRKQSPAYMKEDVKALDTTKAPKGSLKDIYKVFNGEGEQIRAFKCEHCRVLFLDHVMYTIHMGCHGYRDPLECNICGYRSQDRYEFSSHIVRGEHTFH
T7 sequence (Q96SW2 whole entry): as the sequence (Q96SW2 whole entry) above
T7 sequence (Q16531 whole entry partner): as the sequence (Q16531 whole entry partner) above

Compound | IC50 (NCI-H1975) | IC50 [1] | IC50 [2] | IC50 [3] | IC50 (TMD8) | GSPT1 substrate protein remaining % (GSPT1) | CK1a substrate protein remaining % (CK1α) | Weel substrate protein remaining % (WEE1) | IKZF 1 substrate protein remaining % (IKZF1) | IKZF3 substrate protein remaining % (IKZF3) | IKZF2 substrate protein remaining % (IKZF2)
O=C1CCC(N2Cc3cc(CN4CC=C(c5cccc6cnccc56)CC4)ccc3C2=O)C(=O)N1 (centres unmarked) [GT-04666, 3-(5-((4-(isoquinolin-5-yl)-3,6-dihydropyridin-1(2H)-yl)methyl)-1-oxoisoindolin-2-yl)piperidine-2,6-dione] | 10 to 50 nM | 1 to 5 nM | < 0.5 µM | 5 to 10 nM | 10 to 50 nM | A (0% ≤ substrate protein remaining % ≤ 80%) | A (0% ≤ substrate protein remaining % ≤ 80%) | A (0% ≤ substrate protein remaining % ≤ 80%) | A (0% ≤ substrate protein remaining % ≤ 80%) | A (0% ≤ substrate protein remaining % ≤ 80%) | A (0% ≤ substrate protein remaining % ≤ 80%)
O=C1CCC(N2Cc3cc(CN4CC=C(c5ncccc5F)CC4)ccc3C2=O)C(=O)N1 (centres unmarked) [GT-04689, 3-(5-((3-fluoro-3',6'-dihydro-[2,4'-bipyridin]-1'(2'H)-yl)methyl)-1-oxoisoindolin-2-yl)piperidine-2,6-dione] | 50 to 100 nM | 5 to 10 nM | < 0.5 µM | 10 to 50 nM | 50 to 100 nM | A (0% ≤ substrate protein remaining % ≤ 80%) | A (0% ≤ substrate protein remaining % ≤ 80%) | A (0% ≤ substrate protein remaining % ≤ 80%) | A (0% ≤ substrate protein remaining % ≤ 80%) | A (0% ≤ substrate protein remaining % ≤ 80%) | A (0% ≤ substrate protein remaining % ≤ 80%)
O=C1CCC(N2Cc3cc(CN4CCC(c5nccc(Cl)c5Cl)CC4)ccc3C2=O)C(=O)N1 (centres unmarked) [GT-04690, 3-(5-((4-(3,4-dichloropyridin-2-yl)piperidin-1-yl)methyl)-1-oxoisoindolin-2-yl)piperidine-2,6-dione] | 100 to 500 nM | 5 to 10 nM | 0.5 to 1 µM | 50 to 100 nM | 500 to 1000 nM | A (0% ≤ substrate protein remaining % ≤ 80%) | A (0% ≤ substrate protein remaining % ≤ 80%) | A (0% ≤ substrate protein remaining % ≤ 80%) | A (0% ≤ substrate protein remaining % ≤ 80%) | A (0% ≤ substrate protein remaining % ≤ 80%) | A (0% ≤ substrate protein remaining % ≤ 80%)
O=C1CCC(N2Cc3cc(CN4CC=C(c5ncnc6sccc56)CC4)ccc3C2=O)C(=O)N1 (centres unmarked) [GT-04692, 3-(1-oxo-5-((4-(thieno[2,3-d]pyrimidin-4-yl)-3,6-dihydropyridin-1(2H)-yl)methyl)isoindolin-2-yl)piperidine-2,6-dione] | 50 to 100 nM | 1 to 5 nM | < 0.5 µM | 10 to 50 nM | 10 to 50 nM | A (0% ≤ substrate protein remaining % ≤ 80%) | A (0% ≤ substrate protein remaining % ≤ 80%) | A (0% ≤ substrate protein remaining % ≤ 80%) | A (0% ≤ substrate protein remaining % ≤ 80%) | A (0% ≤ substrate protein remaining % ≤ 80%) | A (0% ≤ substrate protein remaining % ≤ 80%)
O=C1CCC(N2Cc3cc(CN4CC(=C5CCOc6cc(F)ccc65)C4)ccc3C2=O)C(=O)N1 (centres unmarked) [GT-04701, 3-(5-((3-(7-fluorochroman-4-ylidene)azetidin-1-yl)methyl)-1-oxoisoindolin-2-yl)piperidine-2,6-dione] | 50 to 100 nM | 1 to 5 nM | < 0.5 µM | 10 to 50 nM | 50 to 100 nM | A (0% ≤ substrate protein remaining % ≤ 80%) | A (0% ≤ substrate protein remaining % ≤ 80%) | A (0% ≤ substrate protein remaining % ≤ 80%) | A (0% ≤ substrate protein remaining % ≤ 80%) | A (0% ≤ substrate protein remaining % ≤ 80%) | A (0% ≤ substrate protein remaining % ≤ 80%)
O=C1CCC(N2Cc3cc(CN4CC=C(c5ncc6ccsc6n5)CC4)ccc3C2=O)C(=O)N1 (centres unmarked) [GT-04708, 3-(1-oxo-5-((4-(thieno[2,3-d]pyrimidin-2-yl)-3,6-dihydropyridin-1(2H)-yl)methyl)isoindolin-2-yl)piperidine-2,6-dione] | 10 to 50 nM | 1 to 5 nM | 0.5 to 1 µM | 5 to 10 nM | 10 to 50 nM | A (0% ≤ substrate protein remaining % ≤ 80%) | A (0% ≤ substrate protein remaining % ≤ 80%) | A (0% ≤ substrate protein remaining % ≤ 80%) | B (80%< substrate protein remaining %≤ 100%) | B (80%< substrate protein remaining %≤ 100%) | B (80%< substrate protein remaining %≤ 100%)
O=C1CCC(N2Cc3cc(CN4CCC(c5c[nH]c6cc(F)ccc56)CC4)ccc3C2=O)C(=O)N1 (centres unmarked) [GT-04713, 3-(5-((4-(6-fluoro-1H-indol-3-yl)piperidin-1-yl)methyl)-1-oxoisoindolin-2-yl)piperidine-2,6-dione] | 5 to 10 nM | 1 to 5 nM | 0.5 to 1 µM | 1 to 5 nM | 10 to 50 nM | A (0% ≤ substrate protein remaining % ≤ 80%) | A (0% ≤ substrate protein remaining % ≤ 80%) | A (0% ≤ substrate protein remaining % ≤ 80%) | A (0% ≤ substrate protein remaining % ≤ 80%) | A (0% ≤ substrate protein remaining % ≤ 80%) | A (0% ≤ substrate protein remaining % ≤ 80%)

The next lines start with results.

IC50 (NCI-H1975) | IC50 [1] | IC50 [2] | IC50 [3] | IC50 (TMD8) | Compound | GSPT1 substrate protein remaining % (GSPT1) | CK1a substrate protein remaining % (CK1α) | Weel substrate protein remaining % (WEE1) | IKZF 1 substrate protein remaining % (IKZF1) | IKZF3 substrate protein remaining % (IKZF3) | IKZF2 substrate protein remaining % (IKZF2)
10 to 50 nM | 1 to 5 nM | < 0.5 µM | 10 to 50 nM | 10 to 50 nM | Cc1cc2c(C3=CCN(Cc4ccc5c(c4)CN(C4CCC(=O)NC4=O)C5=O)CC3)ncnc2s1 (centres unmarked) [GT-04704, 3-(5-((4-(6-methylthieno[2,3-d]pyrimidin-4-yl)-3,6-dihydropyridin-1(2H)-yl)methyl)-1-oxoisoindolin-2-yl)piperidine-2,6-dione] | A (0% ≤ substrate protein remaining % ≤ 80%) | A (0% ≤ substrate protein remaining % ≤ 80%) | A (0% ≤ substrate protein remaining % ≤ 80%) | A (0% ≤ substrate protein remaining % ≤ 80%) | A (0% ≤ substrate protein remaining % ≤ 80%) | A (0% ≤ substrate protein remaining % ≤ 80%)
10 to 50 nM | 1 to 5 nM | 0.5 to 1 µM | 5 to 10 nM | 10 to 50 nM | Cc1nc(C2=CCN(Cc3ccc4c(c3)CN(C3CCC(=O)NC3=O)C4=O)CC2)c2ccsc2n1 (centres unmarked) [GT-04718, 3-(5-((4-(2-methylthieno[2,3-d]pyrimidin-4-yl)-3,6-dihydropyridin-1(2H)-yl)methyl)-1-oxoisoindolin-2-yl)piperidine-2,6-dione] | A (0% ≤ substrate protein remaining % ≤ 80%) | B (80%< substrate protein remaining %≤ 100%) | A (0% ≤ substrate protein remaining % ≤ 80%) | A (0% ≤ substrate protein remaining % ≤ 80%) | A (0% ≤ substrate protein remaining % ≤ 80%) | A (0% ≤ substrate protein remaining % ≤ 80%)
10 to 50 nM | 1 to 5 nM | < 0.5 µM | 5 to 10 nM | 10 to 50 nM | Cn1cc(C2=CCN(Cc3ccc4c(c3)CN(C3CCC(=O)NC3=O)C4=O)CC2)c2ccc(F)cc21 (centres unmarked) [GT-04723, 3-(5-((4-(6-fluoro-1-methyl-1H-indol-3-yl)-3,6-dihydropyridin-1(2H)-yl)methyl)-1-oxoisoindolin-2-yl)piperidine-2,6-dione] | A (0% ≤ substrate protein remaining % ≤ 80%) | A (0% ≤ substrate protein remaining % ≤ 80%) | A (0% ≤ substrate protein remaining % ≤ 80%) | A (0% ≤ substrate protein remaining % ≤ 80%) | A (0% ≤ substrate protein remaining % ≤ 80%) | A (0% ≤ substrate protein remaining % ≤ 80%)
